{"source": "patent US8889379B2", "about": "“Biocatalytic production of glycosides” (Universiteit Gent, priority 2010, dated 2014)", "molecules": {"B1": {"name": "CsCDP: recombinant cellodextrin phosphorylase from Clostridium stercorarium DSM8532, Genbank U60580 (protein, listed as Clostridium stercorarium)", "chain": "MRYGYFDEKAREYVITRPDTPTPWINYIGNGKYGGIVTNTGGGYSFHKDPQNRRITRYRYNNLPTDRPGRYIYVRDRLTGEYWNPGYQPVQRKLDSYRCRHGMGYTVLEGEYKGIAADVTYFVPDDRDFEIWLVQIRNLCHVERNLQVFSYAEFCFWDAIMDQQNVDWVQQINQGRYEDRLITWHPHHFKDACAFFATNAEINSFDTNLEAFIGRYRCESNPIAVETGACSNSVSYRMNGVGAFCIDVNLKPGEEREIIFILGFTENKSTIRDEIRDYLNVEYAKEALKRLKDSWEEYLDKLQIETPDRETNLFVNTWNQYQCKITFNWSRFVSMYSWGLGRGIGIRDSAQDTLGVMHSIPELAGGLIKRLIHCQYTDGRVYHLFFPLTGEGGIGDAPVVKFDWYSDDHLWLPIAANAYLKETANFDFFQSVVPYNDNKTEGTVWEHLNRAMEFTYNHRGPHALPYSRADWNDTLNLDMGNGIAETLFTSMLFSEPPLKRFRCRISDKRIATKYRYWYDEMKQAINEWCWDGEWYIRAFDDEGNVLGSGKNRYGKIFINSQSWAVLSMVAPEEYAKKCLESVYRHLNTKYGIVKVYPAYPEYNPKIGGMTTYPPGAKENGGIFAHTNPWVMIAECMMGNGRRAYQYYRQILPLTRNDDADLLEVEPYVYCQNILGKEHPQFGIGRNSWLTGTAAWNMVAVSQYILGIRPEYDGLTVDPCIPPDWKGFKVRRIFRGCVYNIEVRNPEGVRRCEKNCRRGVETDKIPVKPAGTVCECVVIMG"}, "B2": {"name": "cellodextrin phosphorylase from Clostridium stercorarium (CsCDP) (Thermoclostridium stercorarium subsp. stercorarium DSM 8532) (protein)", "chain": "MRYGYFDEKAREYVITRPDTPTPWINYIGNGKYGGIVTNTGGGYSFHKDPQNRRITRYRYNNLPTDRPGRYIYVRDRLTGEYWNPGYQPVQRKLDSYRCRHGMGYTVLEGEYKGIAADVTYFVPDDRDFEIWLVQIRNLCHVERNLQVFSYAEFCFWDAIMDQQNVDWVQQINQGRYEDRLITWHPHHFKDACAFFATNAEINSFDTNLEAFIGRYRCESNPIAVETGACSNSVSYRMNGVGAFCIDVNLKPGEEREIIFILGFTENKSTIRDEIRDYLNVEYAKEALKRLKDSWEEYLDKLQIETPDRETNLFVNTWNQYQCKITFNWSRFVSMYQLGLGRGIGIRDSAQDTLGVMHSIPELAGGLIKRLIHCQYTDGRVYHLFFPLTGEGGIGDAPVVKFDWYSDDHLWLPIAANAYLKETANFDFLESVVPYNDNKTEGTVWEHLNRAMEFTYNHRGPHGLALIGRADWNDTLNLDMGNGIAESVFTSMLFCRAALEMIQMAEYTGQKDLATKYRYWYDEMKKAINEWCWDGEWYIRAFDDEGNVLGSGKNRYGKIFINSQSWAVLSMVAPEEYAKKCLESVYRHLNTKYGIVKVYPAYPEYNPKIGGMTTYPPGAKENGGIFAHTNPWVMIAECMMGNGRRAYQYYRQILPLTRNDDADLLEVEPYVYCQNILGKEHPQFGIGRNSWLTGTAAWNMVAVSQYILGIRPEYDGLTVDPCIPPDWKGFKVRRIFRGCVYNIEVRNPEGVSRGVKKIVVDGVETDKIPVKPAGTVCECVVIMG"}}, "key": {"[1]": {"target": "T1, cellodextrin phosphorylase from Clostridium stercorarium (CsCDP) (Thermoclostridium stercorarium, UniProt L7VUB7)", "experiment": "CsCDP activity assay (orthophosphate release, synthetic direction)", "assay_type": "biochemical", "conditions": "for Specific activity (U/mg): acceptor specificity, 30 mM Glc1P donor; for Specific activity (U/mg) / Relative activity (%): 50 mM MES buffer pH 6.5, 50 mM of acceptor; for Relative activity (%): relative to cellobiose", "procedure": "(§1) Protein concentrations were measured with the BCA Protein Assay kit from Thermo Scientific. The activity assays were performed with 5% of purified enzyme (50 μg/mL, final concentration) in 50 mM MES buffer pH 6.5, containing 30 mM donor (Glc1P) or 100 mM donor (Gal1P) and 50 mM acceptor at 45° C. Samples were inactivated for 5 minutes at 95° C. before the amount of orthophosphate (Pi) was measured by the method of Gawronski and Benson, 2004. The Km and kcat values in the kinetic study were calculated from a Hanes-Woolf plot."}, "[2]": {"target": "T1, cellodextrin phosphorylase from Clostridium stercorarium (CsCDP)", "experiment": "Kinetic study of the synthetic reaction of CsCDP (Hanes-Woolf plot)", "assay_type": "biochemical", "conditions": "donor substrate instead of Glc1P", "procedure": "as §1"}, "[3]": {"target": "T1, cellodextrin phosphorylase from Clostridium stercorarium (CsCDP)", "experiment": "CsCDP activity assay (orthophosphate release, synthetic direction)", "assay_type": "biochemical", "conditions": "20 mM of acceptor, 45° C. and pH 6.5"}, "[4]": {"substrate": "CCCCCCCCO[C@@H]1O[C@H](CO)[C@@H](O)[C@H](O)[C@H]1O", "experiment": "Kinetic study of the synthetic reaction of CsCDP (Hanes-Woolf plot)", "assay_type": "biochemical, Clostridium stercorarium", "conditions": "other: synthetic reaction, 50 mM MES buffer pH 6.5 at 45° C."}, "[5]": {"substrate": "O=P(O)(O)O[C@H]1O[C@H](CO)[C@@H](O)[C@H](O)[C@H]1O", "experiment": "Kinetic study of the synthetic reaction of CsCDP (Hanes-Woolf plot)", "assay_type": "biochemical, Clostridium stercorarium", "conditions": "other: synthetic reaction, 50 mM MES buffer pH 6.5 at 45° C."}, "[6]": {"substrate": "O=P(O)(O)O[C@H]1O[C@H](CO)[C@H](O)[C@H](O)[C@H]1O", "experiment": "Kinetic study of the synthetic reaction of CsCDP (Hanes-Woolf plot)", "assay_type": "biochemical, Clostridium stercorarium", "conditions": "other: synthetic reaction, 50 mM MES buffer pH 6.5 at 45° C."}, "[7]": {"substrate": "O=[N+]([O-])c1ccc(O[C@@H]2O[C@H](CO)[C@@H](O)[C@H](O)[C@H]2O)cc1", "experiment": "Kinetic study of the synthetic reaction of CsCDP (Hanes-Woolf plot)", "assay_type": "biochemical, Clostridium stercorarium", "conditions": "other: synthetic reaction, 50 mM MES buffer pH 6.5 at 45° C."}}, "note": "“Also recorded” adds a separate entry of the source."}
{"molecule": "OC[C@H]1O[C@H](O[C@H]2[C@H](O)[C@@H](O)C(O)O[C@@H]2CO)[C@H](O)[C@@H](O)[C@@H]1O", "note": "(mixture of isomers) [Maltose]", "values": [{"measurement": "activity of CsCDP towards the substrate (in words)", "setting": "[1]", "value": "very poor acceptors"}, {"measurement": "Specific activity (U/mg)", "setting": "[1]; 45° C.", "value": 0.7, "unit": "U/mg"}, {"measurement": "Relative activity (%)", "setting": "[1]; 45° C.", "value": 3, "unit": "%"}]}
{"molecule": "O=P(O)(O)O[C@H]1O[C@H](CO)[C@H](O)[C@H](O)[C@H]1O", "note": "[Gal1P, α-galactose-1-phosphate]", "values": [{"measurement": "activity of CsCDP towards the substrate (in words)", "setting": "[1]", "value": "active"}, {"measurement": "efficiency on Gal1P as donor, times lower than on Glc1P", "setting": "[2]", "value": "about one thousand"}]}
{"molecule": "CCCCCCO[C@@H]1O[C@H](CO)[C@@H](O)[C@H](O)[C@H]1O", "note": "[Hexyl β-glucoside]", "values": [{"measurement": "Specific activity (U/mg)", "setting": "[1]; 45° C.", "value": 19.9, "unit": "U/mg"}, {"measurement": "Relative activity (%)", "setting": "[1]; 45° C.", "value": 89, "unit": "%"}]}
{"molecule": "CO[C@@H]1O[C@H](CO)[C@@H](O)[C@H](O)[C@H]1O", "note": "[Methyl β-glucoside]", "values": [{"measurement": "Specific activity (U/mg)", "setting": "[1]; 45° C.", "value": 3.5, "unit": "U/mg"}, {"measurement": "Relative activity (%)", "setting": "[1]; 45° C.", "value": 16, "unit": "%"}]}
{"molecule": "CCCCCCCCO[C@@H]1O[C@H](CO)[C@@H](O)[C@H](O)[C@H]1O", "note": "[Octyl β-glucoside]", "values": [{"measurement": "Specific activity (U/mg)", "setting": "[1]; 45° C.", "value": 20.4, "unit": "U/mg"}, {"measurement": "Relative activity (%)", "setting": "[1]; 45° C.", "value": 91, "unit": "%"}]}
{"molecule": "O=[N+]([O-])c1ccc(O[C@@H]2O[C@H](CO)[C@@H](O[C@@H]3O[C@H](CO)[C@@H](O)[C@H](O)[C@H]3O)[C@H](O)[C@H]2O)cc1", "note": "[PNP β-cellobioside]", "values": [{"measurement": "Specific activity (U/mg)", "setting": "[1]; 45° C.", "value": 29.0, "unit": "U/mg"}, {"measurement": "Relative activity (%)", "setting": "[1]; 45° C.", "value": 129, "unit": "%"}]}
{"molecule": "O=[N+]([O-])c1ccc(O[C@@H]2O[C@H](CO)[C@@H](O)[C@H](O)[C@H]2O)cc1", "note": "[PNP β-glucoside, p-nitrophenyl beta-glucoside]", "values": [{"measurement": "Specific activity (U/mg)", "setting": "[1]; 45° C.", "value": 24.7, "unit": "U/mg"}, {"measurement": "Relative activity (%)", "setting": "[1]; 45° C.", "value": 110, "unit": "%"}]}
{"molecule": "O=[N+]([O-])c1ccc(O[C@@H]2OC[C@@H](O)[C@H](O)[C@H]2O)cc1", "note": "[PNP β-xyloside]", "values": [{"measurement": "Specific activity (U/mg)", "setting": "[1]; 45° C.", "value": 7.5, "unit": "U/mg"}, {"measurement": "Relative activity (%)", "setting": "[1]; 45° C.", "value": 33, "unit": "%"}]}
{"molecule": "OC[C@H]1O[C@@](CO)(O[C@H]2O[C@H](CO)[C@@H](O)[C@H](O)[C@H]2O)[C@@H](O)[C@@H]1O", "note": "[Sucrose]", "values": [{"measurement": "activity of CsCDP towards the substrate (in words)", "setting": "[1]", "value": "very poor acceptors"}, {"measurement": "Specific activity (U/mg)", "setting": "[1]; 45° C.", "value": 0.7, "unit": "U/mg"}, {"measurement": "Relative activity (%)", "setting": "[1]; 45° C.", "value": 3, "unit": "%"}]}
{"molecule": "Lactose", "values": [{"measurement": "activity of CsCDP towards the substrate (in words)", "setting": "[1]", "value": "absolutely no activity could be detected; also recorded: inactive"}]}
{"molecule": "cellobiose", "values": [{"measurement": "Specific activity (U/mg)", "setting": "[1]; 45° C.", "value": 22.4, "unit": "U/mg"}, {"measurement": "Relative activity (%)", "setting": "[1]; 45° C.", "value": 100, "unit": "%"}, {"measurement": "Activity (%) relative to the activity on cellobiose", "setting": "[3]; donor 30 mM Glc1P", "value": 100, "unit": "%"}]}
{"molecule": "oleoyl β-glucoside", "values": [{"measurement": "activity of CsCDP towards the substrate (in words)", "setting": "[1]", "value": "better acceptors for CDP than cellobiose"}, {"measurement": "Specific activity (U/mg)", "setting": "[1]; 45° C.", "value": 29.3, "unit": "U/mg"}, {"measurement": "Relative activity (%)", "setting": "[1]; 45° C.", "value": 131, "unit": "%"}, {"measurement": "Activity (%) relative to the activity on cellobiose", "setting": "[3]; donor 30 mM Glc1P", "value": 126, "unit": "%"}, {"measurement": "Activity (%) relative to the activity on cellobiose", "setting": "[3]; donor 100 mM Gal1P", "value": 11, "unit": "%"}]}
{"molecule": "oleoyl β-sophoroside [Sophorolipid]", "values": [{"measurement": "activity as fraction of that on cellobiose", "setting": "[1]; Table 4", "value": "about one third"}, {"measurement": "Activity (%) relative to the activity on cellobiose", "setting": "[3]; donor 30 mM Glc1P", "value": 36, "unit": "%"}]}
{"molecule": "B1", "values": [{"measurement": "optimal temperature for activity in the direction of glycoside synthesis", "setting": "[1]; 50 mM cellobiose, 30 mM Glc1P, 50 mM MES buffer pH 6.5", "value": "~65", "unit": "°C"}, {"measurement": "optimal pH for activity in the direction of glycoside synthesis", "setting": "[1]; 50 mM cellobiose, 30 mM Glc1P, 50 mM MES buffer, 45° C.", "value": "around 6.5"}, {"measurement": "specific activity of the purified enzyme", "setting": "[1]; His6-tagged purified CsCDP, cellobiose acceptor", "value": 22.4, "unit": "U/mg"}]}
{"molecule": "B2", "values": [{"measurement": "Km", "setting": "[4]", "value": "623 ± 26", "unit": "µM"}, {"measurement": "kcat", "setting": "[4]", "value": "14.2 ± 0.5", "unit": "s⁻¹"}, {"measurement": "kcat/Km", "setting": "[4]", "value": 20000, "unit": "M⁻¹ s⁻¹"}, {"measurement": "Km", "setting": "[5]", "value": "2438 ± 16", "unit": "µM"}, {"measurement": "kcat", "setting": "[5]", "value": "27.4 ± 1.7", "unit": "s⁻¹"}, {"measurement": "kcat/Km", "setting": "[5]", "value": 10000, "unit": "M⁻¹ s⁻¹"}, {"measurement": "Km", "setting": "[6]", "value": "31130 ± 683", "unit": "µM"}, {"measurement": "kcat", "setting": "[6]", "value": "2.5 ± 0.1", "unit": "s⁻¹"}, {"measurement": "kcat/Km", "setting": "[6]", "value": 100, "unit": "M⁻¹ s⁻¹"}, {"measurement": "Km", "setting": "[7]", "value": "640 ± 38", "unit": "µM"}, {"measurement": "kcat", "setting": "[7]", "value": "19.6 ± 1", "unit": "s⁻¹"}, {"measurement": "kcat/Km", "setting": "[7]", "value": 30000, "unit": "M⁻¹ s⁻¹"}]}
